Measurements: patent publication US7326772B2, “Peptide for assaying hERG channel binding” (Penta Biotech, Inc., priority 2005, dated 2008)
Where a name gives a salt, the structure may show the parent alone. Bridge positions count the residues as written; N and C are the ends. Peptide text beside a SMILES is read from it.

Columns and labels:
[1] = target: T1, hERG K+ channel membranes (hERG/HEK-293 cell line, clone 16) (Homo sapiens, UniProt Q12809); assay: homogeneous [125I]-BeKm-1 FlashBlue competition assay; assay type: binding; settings: [125I]-BeKm-1 at 0.17 nM; acetate and TFA salts; one hour at room temperature
T1 construct: host or cells: HEK-293 (hERG/HEK-293 cell line, clone 16), membrane preparation
T1 sequence (Q12809 whole entry): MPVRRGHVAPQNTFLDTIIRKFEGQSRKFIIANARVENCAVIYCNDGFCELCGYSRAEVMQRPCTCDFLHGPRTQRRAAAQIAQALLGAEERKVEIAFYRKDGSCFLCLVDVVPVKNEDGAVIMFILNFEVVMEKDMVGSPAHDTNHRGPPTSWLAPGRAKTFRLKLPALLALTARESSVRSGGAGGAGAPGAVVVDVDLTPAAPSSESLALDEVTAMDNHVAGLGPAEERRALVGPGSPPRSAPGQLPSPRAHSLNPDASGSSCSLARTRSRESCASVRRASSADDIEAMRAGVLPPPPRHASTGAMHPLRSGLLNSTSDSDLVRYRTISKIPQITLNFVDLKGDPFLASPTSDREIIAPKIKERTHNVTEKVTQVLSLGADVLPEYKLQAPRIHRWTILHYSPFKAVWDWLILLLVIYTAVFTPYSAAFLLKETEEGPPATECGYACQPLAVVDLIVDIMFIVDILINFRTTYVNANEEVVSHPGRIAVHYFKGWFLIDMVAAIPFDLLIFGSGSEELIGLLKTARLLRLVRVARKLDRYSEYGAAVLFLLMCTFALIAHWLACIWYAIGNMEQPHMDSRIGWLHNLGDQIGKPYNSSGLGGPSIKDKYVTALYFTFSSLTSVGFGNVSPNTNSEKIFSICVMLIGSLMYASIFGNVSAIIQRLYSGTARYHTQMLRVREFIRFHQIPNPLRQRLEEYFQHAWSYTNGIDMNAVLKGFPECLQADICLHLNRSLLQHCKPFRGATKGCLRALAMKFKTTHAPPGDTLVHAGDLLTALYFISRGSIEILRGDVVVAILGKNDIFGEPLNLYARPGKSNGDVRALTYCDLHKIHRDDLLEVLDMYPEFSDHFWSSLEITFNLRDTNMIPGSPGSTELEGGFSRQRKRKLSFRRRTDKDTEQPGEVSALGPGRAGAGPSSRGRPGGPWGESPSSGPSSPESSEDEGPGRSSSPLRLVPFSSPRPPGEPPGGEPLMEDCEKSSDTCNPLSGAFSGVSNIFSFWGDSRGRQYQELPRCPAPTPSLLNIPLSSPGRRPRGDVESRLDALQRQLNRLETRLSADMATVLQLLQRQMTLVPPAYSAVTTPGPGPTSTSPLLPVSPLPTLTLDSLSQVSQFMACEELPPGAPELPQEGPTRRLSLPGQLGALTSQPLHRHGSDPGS
Method: Acetate and TFA salts of (SeC)^7-BeKm-1 were tested in homogeneous [^125I]-BeKm-1 competition assays using FlashBlue GPCR beads and hERG K^+ channel membranes derived from Perkin Elmer's hERG/HEK-293 cell line (clone 16). […] Assays were run in buffer composed of 20 mM Hepes/Tris pH 7.2, 100 μM KCl, 0.5% BSA. 1.25 μg hERG K^+ channel membranes and 62.5 μg FlashBlue GPCR beads were added to each well of a 384-well white Optiplate. The total assay volume for each well was 40 μl. Plates were spun briefly after a one hour incubation at room temperature prior to signal detection with a TopCount apparatus.

hERG channel = target: T2, hERG channel (Homo sapiens, UniProt Q12809); assay: Ki (average)
T2 construct: host or cells: HEK-293 (hERG/HEK-293 cell line, clone 16), membrane preparation
T2 sequence (Q12809 whole entry, looked up): as the sequence (Q12809 whole entry) above
Text: Table printed on a drawing sheet, FIG. 4
Title: Ki of BeKm-1 Analogs in Two Independent FlashBlue Competition Assays.
Head of the field: Ki (average)
First copying reader's note: The table is panel A of FIG. 4; panel B is a plot and is left out.

Row | Compound | affinity for the hERG channel (Ki, FIG. 4) [1] | Ki (hERG channel) [nM]
1 | RPTDIKCSESYQCFPVCKSRFGKTNGRCVNGFCDCF [(SeC)^7-BeKm-1] | comparable to that of native BeKm-1 | –
2 | CC[C@H](C)[C@H](NC(=O)[C@H](CC(=O)O)NC(=O)[C@@H](NC(=O)[C@@H]1CCCN1C(=O)[C@@H](N)CCCNC(=N)N)[C@@H](C)O)C(=O)N[C@@H](CCCCN)C(=O)N[C@H]1CSSC[C@@H]2NC(=O)[C@H](CCCNC(=N)N)NC(=O)CNC(=O)[C@H](CC(N)=O)NC(=O)[C@H]([C@@H](C)O)NC(=O)[C@H](CCCCN)NC(=O)CNC(=O)[C@H](Cc3ccccc3)NC(=O)[C@H](CCCNC(=N)N)NC(=O)[C@H](CO)NC(=O)[C@H](CCCCN)NC(=O)[C@@H]3CSSC[C@@H](C(=O)N[C@@H](Cc4ccccc4)C(=O)O)NC(=O)[C@H](CC(=O)O)NC(=O)[C@H](CSSC[C@H](NC(=O)[C@H](CCC(N)=O)NC(=O)[C@H](Cc4ccc(O)cc4)NC(=O)[C@H](CO)NC(=O)[C@H](CCC(=O)O)NC(=O)[C@H](CO)NC1=O)C(=O)N[C@@H](Cc1ccccc1)C(=O)N1CCC[C@H]1C(=O)N[C@@H](C(C)C)C(=O)N3)NC(=O)[C@H](Cc1ccccc1)NC(=O)CNC(=O)[C@H](CC(N)=O)NC(=O)[C@H](C(C)C)NC2=O [BeKm-1 TFA Salt] (H-RPTDIKCSESYQCFPVCKSRFGKTNGRCVNGFCDCF-OH; disulfide 7-28, 13-33, 17-35 (inferred)) | – | 0.35
